According to US4272437A, “Antibacterial agents, and 4-thio azetidinone intermediates” (priority 1979, dated 1981):
In brackets after ≈: the same amount, converted by molar mass. Structures can show the parent of a compound that is named as a salt. Where two headings read alike, the source gives them in different places.

What was measured:
[1] = system: Staph. aureus A-9537 and 50% serum; experiment: MIC, tube dilution, Staph. aureus A9537 + 50% serum; type: cell-based, Staphylococcus aureus; settings: Staphylococcus aureus, overnight 37° C., read-out: Minimum Inhibitory Concentration (M.I.C.)
Excerpt: (§1) Representative compounds of the present invention were subjected to in vitro antibiotic screening against a variety of microorganisms.

[2] = system: Ps. aeruginosa A-9843A; experiment: MIC, tube dilution, Pseudomonas aeruginosa A9843A; type: cell-based; settings: Pseudomonas aeruginosa, A9843A, read-out: Minimum Inhibitory Concentration (M.I.C.), Pseudomonas aeruginosa A9843A; overnight 37° C.
Excerpt: as §1

[3] = system: Staph. aureus (Pen-Res) A-9606; experiment: MIC, tube dilution, Staphylococcus aureus A9606 (Pen-Res); type: cell-based; settings: Staphylococcus aureus, overnight 37° C.
Excerpt: as §1

[4] = system: Str. pyogenes A-9604; experiment: MIC, tube dilution, Streptococcus pyogenes A9604; type: cell-based; settings: Streptococcus pyogenes, A9604, Str. pyogenes A9604; overnight 37° C., Nutrient Broth; read-out: Minimum Inhibitory Concentration (M.I.C.)
Excerpt: as §1

[5] = system: Ps. aeruginosa A-21213; experiment: MIC, tube dilution, Pseudomonas aeruginosa A21213; type: cell-based; settings: overnight 37° C., read-out: Minimum Inhibitory Concentration (M.I.C.)
Excerpt: as §1

[6] = system: Klebsiella species A20468; experiment: MIC, tube dilution, Klebsiella species A20468; type: cell-based; settings: Klebsiella species (K. pneumoniae) A20468; overnight 37° C.; read-out: Minimum Inhibitory Concentration (M.I.C.)
Excerpt: as §1

[7] = system: Str. faecalis A-20688; experiment: MIC, tube dilution, Streptococcus faecalis A20688; type: cell-based; settings: Enterococcus faecalis, A20688, Str. faecalis A20688; overnight 37° C.; read-out: Minimum Inhibitory Concentration (M.I.C.)
Excerpt: as §1

[8] = system: E. coli A-20341-1; experiment: MIC, tube dilution, Escherichia coli A20341-1; type: cell-based
Excerpt: as §1

[9] = system: Ent. cloacae A-9656; experiment: MIC, tube dilution, Enterobacter cloacae A9656; type: cell-based; settings: overnight 37° C., read-out: Minimum Inhibitory Concentration (M.I.C.)
Excerpt: as §1

[10] = system: Staph. aureus (Meth-Res) A-15097; experiment: MIC, tube dilution, Staphylococcus aureus A15097 (Meth-Res); type: cell-based; settings: Staphylococcus aureus, overnight 37° C.
Excerpt: as §1

[11] = system: Pr. mirabilis A-9900; experiment: MIC, tube dilution, Proteus mirabilis A9900; type: cell-based; settings: Proteus mirabilis, A9900, Proteus mirabilis A9900; overnight 37° C.; read-out: Minimum Inhibitory Concentration (M.I.C.)
Excerpt: as §1

[12] = system: Ser. marcescens A-20019; experiment: MIC, tube dilution, Serratia marcescens A20019; type: cell-based; settings: Serratia marcescens, A20019, Serratia marcescens A20019; overnight 37° C.; read-out: Minimum Inhibitory Concentration (M.I.C.)
Excerpt: as §1

[13] = system: Pr. morganii A-15153; experiment: MIC, tube dilution, Proteus morganii A15153; type: cell-based; settings: Morganella morganii, A15153, Proteus morganii A15153; overnight 37° C.; read-out: Minimum Inhibitory Concentration (M.I.C.)
Excerpt: as §1

[14] = system: Proteus rettgeri A21203; experiment: MIC, tube dilution, Proteus rettgeri A21203; type: cell-based; settings: Providencia rettgeri, overnight 37° C., read-out: Minimum Inhibitory Concentration (M.I.C.)
Excerpt: as §1

[15] = system: E. coli A-15119; experiment: MIC, tube dilution, Escherichia coli A15119; type: cell-based; settings: Escherichia coli, A15119, E. coli A15119; overnight 37° C.; read-out: Minimum Inhibitory Concentration (M.I.C.)
Excerpt: as §1

[16] = system: Str. pneumoniae A-9585; experiment: MIC, tube dilution, Streptococcus pneumoniae A9585; type: cell-based; settings: Streptococcus pneumoniae, A9585, Str. pneumoniae A9585; overnight 37° C., Nutrient Broth; read-out: Minimum Inhibitory Concentration (M.I.C.)
Excerpt: as §1

[17] = system: K. pneumoniae A-15130; experiment: MIC, tube dilution, Klebsiella pneumoniae A15130; type: cell-based; settings: Klebsiella pneumoniae, A15130, K. pneumoniae A15130; overnight 37° C.; read-out: Minimum Inhibitory Concentration (M.I.C.)
Excerpt: as §1

[18] = system: Proteus vulgaris A21559; experiment: MIC, tube dilution, Proteus vulgaris A21559; type: cell-based; settings: Proteus vulgaris
Excerpt: as §1

[19] = system: Staph. aureus A-9537; experiment: MIC, tube dilution, Staphylococcus aureus A9537; type: cell-based; settings: Staphylococcus aureus, A9537, Staph. aureus A9537; overnight 37° C., Nutrient Broth; read-out: Minimum Inhibitory Concentration (M.I.C.)
Excerpt: as §1

[20] = system: Ent. cloacae A-9659; experiment: MIC, tube dilution, Enterobacter cloacae A9659; type: cell-based; settings: Enterobacter cloacae, A9659, Enterobacter cloacae A9659; overnight 37° C.; read-out: Minimum Inhibitory Concentration (M.I.C.)
Excerpt: as §1

[21] = Staph. aureus A9606 (Pen-Res), read-out: Minimum Inhibitory Concentration (M.I.C.)
[22] = Pseudomonas aeruginosa, A21213, Pseudomonas aeruginosa A21213
[23] = Escherichia coli, A203411, E. coli A20341-1; overnight 37° C.; read-out: Minimum Inhibitory Concentration (M.I.C.)
[24] = Enterobacter cloacae, A9656, Enterobacter cloacae A9656
[25] = Staph. aureus A15097 (Meth-Res), read-out: Minimum Inhibitory Concentration (M.I.C.)
[26] = A21203, Proteus rettgeri A21203
[27] = A21559, Proteus vulgaris A21559, overnight 37° C., read-out: Minimum Inhibitory Concentration (M.I.C.)
[28] = Escherichia coli, A203411; E. coli A20341-1; overnight 37° C.; read-out: Minimum Inhibitory Concentration (M.I.C.)
[29] = read-out: Minimum Inhibitory Concentration (M.I.C.), Staph. aureus A15097 (Meth-Res)
[30] = A21559, read-out: Minimum Inhibitory Concentration (M.I.C.)

Compound	MIC [1] [µg/mL]	MIC [2] [µg/mL]	MIC [3, 21] [µg/mL]	MIC [4] [µg/mL]	MIC [5, 22] [µg/mL]	MIC [6] [µg/mL]	MIC [7] [µg/mL]	MIC [8, 23] [µg/mL]	MIC [9, 24] [µg/mL]	MIC [10, 25] [µg/mL]	MIC [11] [µg/mL]	MIC [12] [µg/mL]	MIC [13] [µg/mL]	MIC [14, 26] [µg/mL]	MIC [15] [µg/mL]	MIC [16] [µg/mL]	MIC [17] [µg/mL]	MIC [18, 27] [µg/mL]	MIC [19] [µg/mL]	MIC [20] [µg/mL]	also measured
CCC(N)CC1=C(C(=O)O)N2C(=O)CC2S1 (stereo not shown) [Example 100, 2-(2'-Aminobutyl)-penem-3-carboxylic Acid]	8	> 32	> 32	0.25 (≈ 1.03 µM)	> 32	> 32	> 32	32 (≈ 132 µM)	8 (≈ 33 µM)	> 32	8 (≈ 33 µM)	8 (≈ 33 µM)	16 (≈ 66 µM)	8 (≈ 33 µM)	4 (≈ 16.5 µM)	0.25 (≈ 1.03 µM)	16 (≈ 66 µM)	16 (≈ 66 µM)	0.25 (≈ 1.03 µM)	16 (≈ 66 µM)	–
CC1=C(C(=O)O)N2C(=O)[C@H]([C@@H](C)N)[C@H]2S1 (relative stereo) [Example 70, (1'R,5R,6S and 1'S,5S,6R) 6-1'Amino-1'-ethyl)-2-methylpenem-3-carboxylic Acid]	> 32	> 63	> 63	> 63	> 63	> 63	> 63	> 63	> 63	> 63	> 63	> 63	> 63	> 63	> 63	> 63	> 63	> 63	> 63	> 63	–
COCOC[C@H](O)[C@H]1C(=O)N2C(C(=O)O)=C(C)S[C@H]12 (relative stereo) [Example 105, (1'R,5R,6S and 1'S,5S,6R) 6-(1'-Hydroxy-2'-methoxymethoxy-2'-ethyl)-2-methylpenem-3-carboxylic acid (Isomer C)]	> 32	63 (≈ 218 µM)	63 (≈ 218 µM)	4 (≈ 13.8 µM)	63 (≈ 218 µM)	> 63	> 63	63 (≈ 218 µM)	63 (≈ 218 µM)	> 63	> 63	> 63	> 63	32 (≈ 111 µM)	63 (≈ 218 µM)	4 (≈ 13.8 µM)	63 (≈ 218 µM)	> 63	> 8	63 (≈ 218 µM)	–
CC1=C(C(=O)O)N2C(=O)[C@H]([C@H](O)Cc3ccccc3)[C@H]2S1 (relative stereo) [Example 95, (1'R,5R,6S and 1'S,5S,6R) 6-(1'-Hydroxy-2'-phenylethyl)-2-methylpenem-3-carboxylic acid (isomer B)]	> 63	> 125	–	32 (≈ 105 µM)	–	> 125	> 125	–	–	–	> 125	> 125	> 125	–	> 125	32 (≈ 105 µM)	> 125	–	125 (≈ 409 µM)	> 125	MIC ([3]; read-out: Minimum Inhibitory Concentration (M.I.C.), Staph. aureus A9606 (Pen-Res)): > 125 µg/mL; MIC ([5]; Pseudomonas aeruginosa A21213): > 125 µg/mL; MIC [8, 28]: > 125 µg/mL; MIC ([9]; Enterobacter cloacae A9656): > 125 µg/mL; MIC [10, 29]: > 125 µg/mL; MIC ([14]; Proteus rettgeri A21203): > 125 µg/mL; MIC [18, 30]: > 125 µg/mL
CC[C@@H](O)[C@H]1C(=O)N2C(C(=O)O)=C(C)S[C@H]12 (relative stereo) [Example 94, (1'R,5R,6S and 1'S,5S,6R) 6-(1'-Hydroxy-1'-propyl)-2-methylpenem-3carboxylic acid, sodium and potassium salts (isomer B)]	> 63	> 125	32	16	–	> 125	> 125	–	–	–	> 125	> 125	> 125	–	> 125	1	> 125	–	32	> 125	MIC ([5]; Pseudomonas aeruginosa A21213): > 125 µg/mL; MIC [8, 28]: > 125 µg/mL; MIC ([9]; Enterobacter cloacae A9656): > 125 µg/mL; MIC [10, 29]: > 125 µg/mL; MIC ([14]; Proteus rettgeri A21203): > 125 µg/mL; MIC [18, 30]: > 125 µg/mL
